The text below walks through data of publication PMC6487404, “An Investigation into the Role of P-Glycoprotein in the Intestinal Absorption of Repaglinide: Assessed by Everted Gut Sac and Caco-2 Cell Line” (Iranian Journal of Pharmaceutical Research : IJPR, 2019).

Data set [1] is described as follows: Everted gut sac transport of REG, mucosal to serosal. The note with it: for Increase in drug permeability in presence of inhibitor: everted gut sac. The format is in vitro ADME, rat. The protocol:
The everted sac method was used as previously described ([11]). All animal experiments were approved by the local ethics committee of Shahid Beheshti University of Medical Sciences (Tehran, Iran). Male Wistar rats weighing 230 and 250 g were fasted for 24 h but were allowed free access to water. Under deep anesthesia, the jejunum of the rat intestines (approximately 10 cm) was quickly excised, and the underlying mesenterium was removed. The segment was washed several times with normal saline solution and placed immediately into the oxygenated Krebs buffer (composition: NaCl 118 mM, NaHCO3 25 mM, KCl 4.7 mM, CaCl22.5 mM, MgSO4 1.2 mM, KH2PO4 1.2 mM, and d-glucose 11 mM). The intestine was carefully everted on a glass rod (3.0 mm diameter), filled with 2 mL of Krebs buffer, and divided into sacs approximately 4.5 cm in length with silk suture. The sacs were placed in the oxygenated buffer solution (pH 6.8). The solution was maintained at 37 °C with 95% O2 and 5% CO2 throughout the experiment.
Sacs were placed in 25 mL of oxygenated buffer solutions (pH 6.8) containing different concentrations of REG (10 to 100 µM) with or without the P-gp inhibitors at the typically used inhibitory concentrations: verapamil (100 µM), valspodar (5 µM), or ketoconazole (10 µM) ([12]-[14]). At various time points, 10, 20, 35, 45, 60, and 90 min, sacs were removed, blotted dry, and the serosal contents were collected. REG serosal concentration was determined by a validated HPLC method (Section 2.4). Each sac was weighed before and after the experiment to calculate the fluid volume inside the sac.
(§1) HPLC was conducted using a system consisting of a Wellchrom K-1001 HPLC pump and a K-2700 diode array UV/VIS spectrophotometric detector (Knauer, Germany). The analyses were conducted at ambient temperature on a Perfect Sil RP-18 (150 mm × 4.6 mm i.d., Merck). The optimal mobile phase for REG was a mixture of acetonitrile and phosphate buffer 0.02 M (60:40 V/V) delivered at a flow rate of 1 mL/min. The detection wavelength was set at 242 nm and the injection volume was 100 μL. The column temperature was maintained at room temperature. The calibration curves were linear over the concentration range of 100-1000 ng/mL (R^2 > 0.994). The intra-day and inter-day coefficients of the variation (CV) were all less than 5%.
(§2) Apparent permeability coefficients (Papp) of REG were calculated in everted gut sac and Caco-2 cell line according to the below equation ([19]): […]
(§3) Where the dQ/dt (ng/min) is drug permeation rate, A (cm^2) the cross sectional area, and C0 (ng/mL) the initial concentration of REG in the donor chamber. In Caco-2 cell, the Papp of REG was calculated in both apical to basolateral (papp.AB), and basolateral to apical (papp.BA) directions. The efflux ratio (ER) of the drug in Caco-2 cell was assessed by calculating the ratio of papp.BA to papp.AB (papp.BA/papp.AB). TEER was calculated based on the following equation ([16]): […]

Data set [2] in a line: Bi-directional transport of REG across Caco-2 cell monolayers. It is filed as in vitro ADME. The conditions noted are these: human, Caco-2, mean ± SD, n = 3. The protocol:
(§4) Caco-2 cells (purchased from Pasteur Institute of Iran) were grown on 75 cm^2 plastic culture flasks, containing 15% (V/V) fetal bovine serum (FBS), 50% RPMI 1640, 34% DMEM and 1% (V/V) penicillin–streptomycin at 37 °C in a 95% humidified air with 5% CO2. The growth medium was changed every other day, and the cells were trypsinized using Trypsin-EDTA every 4 days for passage. The cells with passage numbers of 35-40 were used for the drug transport experiments.
(§5) When reaching 80–90% confluency, for transport study, the cells were seeded on polycarbonate filter inserts (with pore size of 0.4 µm, 1.13 cm^2 surface area, Korea) at a density of 5 × 10^4 cells/cm^2 and grown for 21 days to allow full expression of P-gp and appropriate tight junctions. To evaluate the integrity of cellular monolayer, the transepithelial electrical resistance (TEER) was measured and transport studies were conducted when the TEER values were more than 300-400 Ωcm^2. Before conducting drug transport experiments, the cells were washed twice with HBSS containing 25 mM HEPES (pH 7.4, 37 °C). Then, monolayers were pre-incubated at 37 °C for 30 min, and TEER values were measured. HBSS/HEPES buffer on both sides of the cell monolayers was then removed by aspiration and replaced with REG solution with various concentrations (20, 40 and 60 µM) on one side of the cell layer, apical (A) or basolateral (B), and fresh blank buffer on the other side. The volume of the buffer on the apical and basolateral side of the cell layer was 0.3 mL and 0.7 mL, respectively. The monolayers were incubated at 37 °C, placed in a shaker and shaken at 50 rpm during the transport process. The samples were taken from the receptor chamber (apical side or basolateral side in the case of B-A and A-B transport studies, respectively) at 30, 60, 90, 120 and 180 min, and then replaced with the same volume of the pre-warmed fresh buffer. Each experiment was repeated three times and REG concentration was determined by the HPLC system. The inhibition of REG efflux across Caco-2 cells was examined in the presence of two common P-gp inhibitors: verapamil (100 μM) and valspodar (5 μM).
as §1, §2, §3
For orientation: Caco-2 monolayers are a common model of the intestinal barrier.

Data set [3] deals with Caco-2 cell monolayers. The description is as above. It is filed as in vitro ADME. The conditions noted are these: Caco-2 results, ER and effect of P-gp inhibitors. The protocol:
as §4, §5, §1, §2, §3

Data set [4] has as its system P-gp. Described as above. The format is in vitro ADME. The note with it: human, Caco-2, mean ± SD, n = 3; for efflux ratio at 180 min, 40 µM: read-out: ER (efflux ratio, papp.BA/papp.AB). The protocol:
as §4, §5, §1, §2, §3

Data set [5] has as its system Caco-2 cell monolayers. Briefly: Lucifer yellow passage across Caco-2 monolayers (monolayer integrity). It is filed as in vitro ADME. The note with it: 100 µg/mL, 37 °C, all the experiments. The method, then:
To determine the cell monolayers integrity, the TEER values and percent of Lucifer yellow transport across the cell monolayers were measured. The TEER was measured using an EVOM 2 Epithelial Voltohmmeter (World Precision Instrument, Sarasota, USA). The transport studies were conducted when the TEER values were more than 300-400 Ωcm^2. A reduction in the TEER recorded across a monolayer indicates the dilation of tight junctions or a disruption of the monolayer ([16], [17]). Lucifer yellow is a small hydrophilic fluorescent molecule that is easily detectable by spectrophotofluorometer (485 nm excitation and 535 nm emission). The paracellular transfer of Lucifer yellow was determined and served as an additional marker for the epithelial cell tightness. In each set of experiments, Lucifer yellow was added (100 µg/mL) to the inserts and its passage was evaluated at 37 °C ([18]).
Where TEERmono is the cell monolayer and porous membrane resistance, TEERblank the porous membrane resistance, and A the porous membrane surface area. The Lucifer yellow transport was calculated according to the following equation ([18]):
Lucifer Yellow Passage% = [(Ft − Fb)/(F0 − Fb)] × 100
Ft is the fluorescence intensity of Lucifer yellow across the monolayer, F0 the initial fluorescence intensity of Lucifer yellow on the donor side, and Fb the fluorescence intensity of the blank sample (HBSS/HEPES buffer alone).

[6] abbreviates: pH 7.4, with valspodar 5 µM, REG 40 µM + valspodar 5 µM.
Setting [7] is: pH 7.4, with verapamil 100 µM, REG 40 µM + verapamil 100 µM.

Read-outs that look alike come from different tables or passages of the source.

The term Papp denotes a coefficient for how fast a substance crosses the barrier. What is called Papp A→B is the apparent permeability from the apical to the basolateral side of a cell layer. For orientation: Papp B→A means how fast a substance crosses the layer from the basolateral side. In the case of `CCOc1cc(CC(=O)N[C@@H](CC(C)C)c2ccccc2N2CCCCC2)ccc1C(=O)O` [REG, Repaglinide], the “Increase in drug permeability in presence of inhibitor” value in data set [1] (REG 20 µM plus ketoconazole 10 µM versus control) was determined as 3 fold; in data set [1] (REG 20 µM plus valspodar 5 µM versus control), 2.6 fold; in data set [1] (REG 20 µM plus verapamil 100 µM versus control), 3 fold. Further, the “Apparent permeability coefficient (Papp) across everted gut sacs” value in data set [1] (REG 40 µM, mucosal to serosal, rat jejunum, pH 6.8, mean ± SD, n = 3) is recorded as 1.23 ± 0.19 × 10^-5 cm/s; in data set [1] (REG 100 µM, mucosal to serosal, rat jejunum, pH 6.8, mean ± SD, n = 3) it was 3.29 ± 0.58 × 10^-5 cm/s. The apparent permeability (Papp) at 90 min, 40 µM in data set [1] (male, Wistar, rat, pH 6.8, drug concentration 40 µM, read-out: Papp in everted gut sacs (abstract)) was found to be 12.3 ×10⁻⁶ cm/s. For the same molecule, the Papp at 90 min, 100 µM in data set [1] (male, Wistar, rat, pH 6.8, drug concentration 100 µM, read-out: Papp in everted gut sacs (abstract)) is 32.9 ×10⁻⁶ cm/s. The apparent permeability coefficient (Papp) at 90 min, 10 µM in data set [1] (male, Wistar, REG 10 µM, mucosal to serosal, rat jejunum, pH 6.8, mean ± SD, n = 3, read-out: Apparent permeability coefficient (Papp) across everted gut sacs) is 12.1 ± 1.4 ×10⁻⁶ cm/s. Further, the Papp at 90 min, 20 µM in data set [1] (male, Wistar, REG 20 µM, mucosal to serosal, rat jejunum, pH 6.8, mean ± SD, n = 3, read-out: Apparent permeability coefficient (Papp) across everted gut sacs) came to 11.6 ± 0.9 ×10⁻⁶ cm/s. Also, the efflux ratio at 180 min, 20 µM in data set [2] (Caco-2, pH 7.4, REG 20 µM, read-out: ER (efflux ratio, papp.BA/papp.AB)) amounted to 0.64 ± 0.02. Further, the efflux ratio at 180 min, 40 µM was 0.65 ± 0.05 in data set [2] (Caco-2, pH 7.4, REG 40 µM, read-out: ER (efflux ratio, papp.BA/papp.AB)); 0.68 ± 0.07 in data set [4] (Caco-2, pH 7.4, with valspodar 5 µM, REG 40 µM + valspodar 5 µM); 0.61 ± 0.09 in data set [4] (Caco-2, pH 7.4, with verapamil 100 µM, REG 40 µM + verapamil 100 µM). Moreover, the efflux ratio at 180 min, 60 µM in data set [2] (Caco-2, pH 7.4, REG 60 µM, read-out: ER (efflux ratio, papp.BA/papp.AB)) worked out at 0.8 ± 0.07. In data set [2] (pH 7.4, REG 20 µM), the apparent permeability from apical to basolateral (Papp A→B) at 180 min, 20 µM came out at 16.7 ± 0.4 ×10⁻⁶ cm/s. Further, the apparent permeability from basolateral to apical (Papp B→A) at 180 min, 20 µM in data set [2] (pH 7.4, REG 20 µM) was 10.7 ×10⁻⁶ cm/s. Moreover, the Papp A→B at 180 min, 40 µM in data set [2] (pH 7.4, REG 40 µM) stood at 18.4 ± 1.2 ×10⁻⁶ cm/s; in data set [4] (setting [6]), 16.4 ± 0.5 ×10⁻⁶ cm/s; in data set [4] (setting [7]), 19.6 ± 2.7 ×10⁻⁶ cm/s. Besides, the Papp B→A at 180 min, 40 µM in data set [2] (pH 7.4, REG 40 µM) was 11.9 ×10⁻⁶ cm/s; in data set [4] (setting [6]), 11.2 ×10⁻⁶ cm/s; in data set [4] (setting [7]), 11.8 ± 1.2 ×10⁻⁶ cm/s. This molecule showed an apical-to-basolateral permeability (Papp A→B) at 180 min, 60 µM in data set [2] (pH 7.4, REG 60 µM) of 18.3 ± 0.4 ×10⁻⁶ cm/s. The same molecule gave a Papp B→A at 180 min, 60 µM in data set [2] (pH 7.4, REG 60 µM) of 14.6 ×10⁻⁶ cm/s. In addition, in data set [3], the “P-gp substrate recognition (FDA guidance criteria)” value was “cannot be considered as a distinct P-gp substrate”.
Regarding Lucifer yellow, the “Transport (passage) of Lucifer yellow across the monolayer” value in data set [5] is recorded as below 0.3%.
